Reference: patent US5410052A, “Symmetrical and unsymmetrical polyalkylamine metal complexes for ligand extraction and generation” (The Regents of the University of California, priority 1990, dated 1995)
Where two headings read alike, the source gives them in different places.

Columns and labels:
[1] = UV-visible spectroscopic evaluation of oxygen complex formation by cobalt carrier compounds; type: binding
Description: Initially, solutions of particular carrier compounds are monitored by UV-visible spectroscopy to determine whether the carrier compound forms oxygen complexes of sufficient stability as to be potentially useful in processes according to the present invention. UV-visible spectra of carrier compounds are also observed as a function of the pH to determine the pH range, if any, over which the carrier compounds bind oxygen without decomposition. The initial pH for use in further experiments (the "Working pH") is defined as one pH unit above that at which the proportion of carrier compound-oxygen complex is about 90% or more of the maximum formed under ca. 0.2 atm oxygen, as determined by this spectroscopic examination. […] An initial working pH can also be determined from potentiometric experiments on the oxygen complexes of cobalt carrier compounds, as will be discussed below.
The necessary UV and visible spectra necessary for this evaluation are obtained with any of a variety of commercially available spectrophotometers. The solution to be measured is prepared in or transferred to a suitable quartz cell with provision for the exclusion of oxygen. […] Spectra are then recorded under both oxygen free and oxygenated conditions at each of the desired pH values.

[2] = set-up: key to Log K02 (symbol): *: Oxygen complex is unstable.; **: No oxygen complex observed; settings: cobalt complex, literature, cited from earlier work; for Log K02: dimeric oxygen complex, Ref. 1 or 4
[3] = literature, Ref. 1, 2 or 4; cited from earlier work
[4] = Potentiometric pH titration of polyalkylamines: protonation constants (basicity); type: physicochemical; settings: 25°±0.1° C., ca. 1.5 mM PAA; Ref. 3 determined by applicants
Description: the equilibrium constants for successive protonations of the PAA compounds are defined by
KHi =[PAA(H^+)i ]/[PAA(H^+)i-1 ] [H^+ ](10)
Where spectrophotometric characterization of a particular cobalt carrier compound has proven satisfactory, both the polyalkylamine and the cobalt carrier compound are characterized by a set of potentiometric pH titrations to determine the basicity of the ligating atoms, the formation constants KML and KMLH, and the apparent oxygen binding equilibrium constants.
Potentiometric titrations are performed using a Fisher or Cole-Palmer pH meter in a sealed, jacketed glass cell equipped with glass and calomel electrodes and with provisions for performing measurements under oxygen-free conditions. The cell is kept at a constant temperature of 25°±0.1° C. by circulating water from a thermostated bath through the cell jacket. The electrodes and pH meter are standardized with commercially available standard buffer solutions (Fisher Scientific). The polyalkylamine ligands and cobalt carrier compounds were each titrated potentiometrically by incrementally adding standard potassium hydroxide solution and recording the pH of the solution after each addition of base. Titrations of the cobalt carrier compounds are carried out under prepurified nitrogen or argon; titrations of oxygenated carrier compounds are performed under oxygen treated with Ascarite to remove carbon dioxide.
All solutions contained ca. 1.5 mM PAA; for titrations of cobalt complexes, the solutions contained, in addition, 1.5 mM CoCl2.
Typical results obtained as outlined above from pH titrations of selected polyalkylamines, cobalt carrier compounds, and oxygen complexes of cobalt carrier compounds are graphically depicted in FIGS. 2, 3, and 4, and summarized in Table III. The values shown in Table III, defined by equations (6)-(8) and (10). above, were derived either by direct measurement from the titration curves obtained, or determined by the iterative best fit of the data to a computer program such as that described by Harris, et al., Inorganic Chemistry, vol. 17, p. 889, 890 (1978). Generally, although the latter values are considered to be more reliable, values obtained by either methods are approximately the same and sufficient for the present evaluation.

[5] = Cyclic voltammetry of Co(PAA)n+ carrier compounds; type: physicochemical; settings: scan +
Description: Cyclic voltammentry experiments were performed under nitrogen or iar for the unoxygenated or oxygenated carrier compounds, respectively, in a cell having a platinum wire auxiliary electrode, a silver-silver chloride reference electrode, and suitable working electrode. The potential between the auxiliary and working electrodes was varied with a Princeton Applied Research (Princeton, N.J.) Scanning Potentiostate at 50 mV/s from a suitable initial with a suitable initial scan direction (Scan Dir.), depending on the electrochemical potentials if interest. All solutions contained 1 mM CoCl2, 1 mM or 1.5 mM PAA, and a supporting electrolyte, and were buffered to a suitable pH, usually about the initial working pH.
Cyclic voltammetry enables the estimation of anode (EPA) and cathode (EPC) half cell potentials, the cell potential ΔE=(EPA -EPC), and an approximate formal reaction potential […]. In addition, estimates of the rate of electron transfer to a particular electrode and electrochemical reversibility of the reaction can be obtained.

[6] = deox, 1.0 mM PAA, pH 7.6, 0.5M NaCl/0.1M K2HPO4, gold, Einitial -0.3 V
[7] = ox, 1.0 mM PAA, pH 7.6, 0.5M KCl/0.1M K2HPO4, gold, Einitial +0.3 V
[8] = deox, 1.5 mM PAA, pH 3.0, 0.5M KCl/0.1M K2HPO4, gold, Einitial -0.3 V
[9] = ox, 1.0 mM PAA, pH 9.0, 0.5M NaCl/0.1M Borate, gold, Einitial +0.12 V

Compound | Log K1 [3] | Log K2 [3] | Log K3 [3] | Log K4 [3] | Log K1 [4] | Log K2 [4] | Log K3 [4] | Log K02 [2] | further results
CN(CCCNCc1ccccn1)CCCNCc1ccccn1 [PAA No. 76, 1,11-Bis(2-Pyridyl)-6-Methyl-2,6,10-Triazaundecane] |  |  |  |  |  |  |  |  | oxygen binding of the cobalt complex ([1]; cobalt complex of the PAA, spectrophotometric analysis, under conditions of interest): does not appear to bind oxygen
c1ccc(CNCc2cccc(CNCc3ccccn3)n2)nc1 [compound 21] | 7.55 | 6.86 | 3.2 | 2.9 | 7.74 | 6.69 | 2.95 |  | Log K02 (symbol) ([2]; Ref. 2): *
c1ccc(CNCCCNCCCNCc2ccccn2)nc1 [compound 64] | 9.92 | 7.63 | 6.76 | 1.79 | 9.54 | 7.44 | 6.34 | 7.7 | EPA [5, 6]: 0.4 V; EPC [5, 6]: -0.45 V; E° [5, 6]: -0.05 V; ΔE [5, 6]: 0.85 V; EPA [5, 7]: 0.08 V; EPC [5, 7]: -0.4 V; ΔE [5, 7]: 1.2 V
c1ccc(CNCCNCCNCc2ccccn2)nc1 [compound 62] | 8.88 | 7.04 | 3.82 | 1.44 | 8.91 | 6.95 | 3.64 | 11.4 | EPA [5, 8]: 0.0 V; EPC [5, 8]: -0.1 V; E° [5, 8]: -0.05 V; ΔE [5, 8]: 0.1 V; EPA [5, 9]: 0.75 V; EPC [5, 9]: -0.55 V; ΔE [5, 9]: 1.3 V
c1ccc(CNCc2cccc(CNCc3ccccn3)n2)nc1 [PAA No. 21, 2,6-Bis(l-(3-(2-Pyridyl)-2-Azapropyl))Pyridine] |  |  |  |  |  |  |  |  | oxidation of the cobalt ion of the Co(II) complex ([1]; Co(II) complex of the PAA): relatively rapid, irreversible oxidation of the cobalt ion to Co(III)
c1nc(CNCCCNCCCNCc2c[nH]cn2)c[nH]1 [compound 74] | 10.12 | 8.62 | 7.36 | 4.51 | 9.75 | 8.58 | 7.2 | 9.49 | Log K5 [3]: 3.82; Log K4 [4]: 4.75; Log K5 [4]: 3.75
